Data: PubChem BioAssay (NCI)
“And” between values parts separate entries of the source, which are not always exact repeats. Equal values may be shown once.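 In this assay, cells in 96-well plates receive the compound at five concentrations for 48 hours. Endpoints are linearly interpolated between the surrounding concentrations. GI50 marks 50% less growth. Definition used: TGI = concentration required for complete inhibition of growth.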

Legend:
Assay in all cases: NCI-60 cell line screen, 48 h
IGROV1 ovarian = tested on: IGROV1 ovarian
MALME-3M melanoma = tested on: MALME-3M melanoma
MDA-MB-435 = tested on: MDA-MB-435
HCT-116 colon = tested on: HCT-116 colon
NCI-H460 lung = tested on: NCI-H460 lung
T-47D breast = tested on: T-47D breast
HS 578T breast = tested on: HS 578T breast
LOX IMVI melanoma = tested on: LOX IMVI melanoma
UACC-62 melanoma = tested on: UACC-62 melanoma
KM12 colon = tested on: KM12 colon
PC-3 prostate = tested on: PC-3 prostate
DU-145 prostate = tested on: DU-145 prostate
K-562 leukemia = tested on: K-562 leukemia
SK-MEL-5 melanoma = tested on: SK-MEL-5 melanoma
COLO 205 colon = tested on: COLO 205 colon
OVCAR-4 ovarian = tested on: OVCAR-4 ovarian
ACHN renal = tested on: ACHN renal
OVCAR-8 ovarian = tested on: OVCAR-8 ovarian
EKVX NSCLC = tested on: EKVX NSCLC
UACC-257 melanoma = tested on: UACC-257 melanoma
786-0 renal = tested on: 786-0 renal
SW-620 colon = tested on: SW-620 colon
A498 renal = tested on: A498 renal
SNB-19 CNS = tested on: SNB-19 CNS
SK-OV-3 ovarian = tested on: SK-OV-3 ovarian
SN12C renal = tested on: SN12C renal
SF-295 CNS = tested on: SF-295 CNS
SF-539 CNS = tested on: SF-539 CNS
NCI-H226 lung = tested on: NCI-H226 lung
RXF 393 renal = tested on: RXF 393 renal
M14 melanoma = tested on: M14 melanoma
OVCAR-3 ovarian = tested on: OVCAR-3 ovarian
A549 NSCLC = tested on: A549 NSCLC
NCI/ADR-RES ovarian = tested on: NCI/ADR-RES ovarian
U251 CNS = tested on: U251 CNS
CCRF-CEM leukemia = tested on: CCRF-CEM leukemia
CAKI-1 renal = tested on: CAKI-1 renal
HCC-2998 colon = tested on: HCC-2998 colon
OVCAR-5 ovarian = tested on: OVCAR-5 ovarian
HOP-62 NSCLC = tested on: HOP-62 NSCLC
BT-549 breast = tested on: BT-549 breast
MDA-MB-231 breast = tested on: MDA-MB-231 breast
UO-31 renal = tested on: UO-31 renal
SF-268 CNS = tested on: SF-268 CNS
TK-10 renal = tested on: TK-10 renal
HT29 colon = tested on: HT29 colon
MCF7 breast = tested on: MCF7 breast
SK-MEL-28 melanoma = tested on: SK-MEL-28 melanoma
SNB-75 CNS = tested on: SNB-75 CNS
NCI-H23 lung = tested on: NCI-H23 lung
HCT-15 colon = tested on: HCT-15 colon
NCI-H522 lung = tested on: NCI-H522 lung

With `NCCCn1c2c(c3ccc([N+](=O)[O-])cc3c1=O)C(=O)c1cc(Br)ccc1-2` the GI50 (IGROV1 ovarian) was 75.4 nM, the TGI (IGROV1 ovarian) was 225 nM and 32.5 nM and the GI50 (MALME-3M melanoma) was 103 nM. For the same compound, the GI50 (MDA-MB-435) was 267 nM and 162 nM, the TGI (MDA-MB-435) was 1360 nM and the GI50 (HCT-116 colon) was 185 nM and 48.4 nM. The TGI (HCT-116 colon) was 348 nM and 207 nM, the GI50 (NCI-H460 lung) was 0.746 nM and the TGI (NCI-H460 lung) was 113 nM. The GI50 (T-47D breast) was 346 nM and 169 nM, the TGI (T-47D breast) was 1490 nM and the GI50 (HS 578T breast) was 105 nM. The GI50 (LOX IMVI melanoma) was 6.83 nM, the TGI (LOX IMVI melanoma) was 109 nM and 22.7 nM and the GI50 (UACC-62 melanoma) was 19.5 nM. For the same compound, the TGI (UACC-62 melanoma) was 48.8 nM and 25.6 nM, the GI50 (KM12 colon) was 83.4 nM and 18.5 nM and the TGI (KM12 colon) was 353 nM and 191 nM. For the same compound, the GI50 (PC-3 prostate) was 101 nM and 28.6 nM, the TGI (PC-3 prostate) was 412 nM and 312 nM and the GI50 (DU-145 prostate) was 2.05 nM. The TGI (DU-145 prostate) was 8.73 nM and 12.1 nM, the GI50 (K-562 leukemia) was 8.13 nM and the TGI (K-562 leukemia) was 264 nM. For the same compound, the GI50 (SK-MEL-5 melanoma) was 26.5 nM and 33.8 nM, the TGI (SK-MEL-5 melanoma) was 150 nM and 251 nM and the GI50 (COLO 205 colon) was 94.6 nM and 790 nM. For the same compound, the TGI (COLO 205 colon) was 2340 nM, the GI50 (OVCAR-4 ovarian) was 102 nM and the GI50 (ACHN renal) was 18.7 nM. It also gave a TGI (ACHN renal) of 47.7 nM, a GI50 (OVCAR-8 ovarian) of 27.1 nM and a TGI (OVCAR-8 ovarian) of 188 nM. The GI50 (EKVX NSCLC) was 75.7 nM and 50.1 nM, the TGI (EKVX NSCLC) was 223 nM and the GI50 (UACC-257 melanoma) was 456 nM. The GI50 (786-0 renal) was 43.5 nM and 64.3 nM, the TGI (786-0 renal) was 173 nM and 387 nM and the GI50 (SW-620 colon) was 1.06 nM. It also gave a TGI (SW-620 colon) of 132 nM, a GI50 (A498 renal) of 2.31 nM and a TGI (A498 renal) of 62.8 nM. The GI50 (SNB-19 CNS) was 37.9 nM, the GI50 (SK-OV-3 ovarian) was 348 nM and the TGI (SK-OV-3 ovarian) was 2030 nM. It also gave a GI50 (SN12C renal) of 15.4 nM, a TGI (SN12C renal) of 56.6 nM and a GI50 (SF-295 CNS) of 163 nM. The GI50 (SF-539 CNS) was 13.2 nM and 10.9 nM, the TGI (SF-539 CNS) was 69.9 nM and 47.2 nM and the GI50 (NCI-H226 lung) was 45.1 nM and 11 nM. For the same compound, the TGI (NCI-H226 lung) was 326 nM and 68.4 nM, the GI50 (RXF 393 renal) was 318 nM and the GI50 (M14 melanoma) was 185 nM. For the same compound, the TGI (M14 melanoma) was 435 nM and 165 nM, the GI50 (OVCAR-3 ovarian) was 254 nM and the GI50 (A549 NSCLC) was 89.7 nM. The TGI (A549 NSCLC) was 245 nM, the GI50 (NCI/ADR-RES ovarian) was 35.2 nM and the TGI (NCI/ADR-RES ovarian) was 203 nM and 206 nM. For the same compound, the GI50 (U251 CNS) was 20.2 nM, the TGI (U251 CNS) was 111 nM and 14 nM and the GI50 (CCRF-CEM leukemia) was 3.3 nM. For the same compound, the TGI (CCRF-CEM leukemia) was 15.9 nM, the GI50 (CAKI-1 renal) was 219 nM and the TGI (CAKI-1 renal) was 623 nM. The GI50 (HCC-2998 colon) was 154 nM, the GI50 (OVCAR-5 ovarian) was 197 nM and 140 nM and the TGI (OVCAR-5 ovarian) was 409 nM and 688 nM. For the same compound, the GI50 (HOP-62 NSCLC) was 34 nM and 32.9 nM, the TGI (HOP-62 NSCLC) was 171 nM and 388 nM and the GI50 (BT-549 breast) was 31.4 nM and 49.1 nM. For the same compound, the TGI (BT-549 breast) was 893 nM, the GI50 (MDA-MB-231 breast) was 36.4 nM and 16.8 nM and the TGI (MDA-MB-231 breast) was 218 nM and 103 nM. For the same compound, the GI50 (UO-31 renal) was 57.5 nM, the TGI (UO-31 renal) was 184 nM and the GI50 (SF-268 CNS) was 3.58 nM. The TGI (SF-268 CNS) was 142 nM, the GI50 (TK-10 renal) was 267 nM and 280 nM and the TGI (TK-10 renal) was 942 nM. The GI50 (HT29 colon) was 5.56 nM, the TGI (HT29 colon) was 134 nM and the TGI (MCF7 breast) was 69.6 nM. It also gave a GI50 (SK-MEL-28 melanoma) of 71.5 nM, a GI50 (SNB-75 CNS) of 2.81 nM and a TGI (SNB-75 CNS) of 29.8 nM. The GI50 (NCI-H23 lung) was 28.9 nM and 21.3 nM, the TGI (NCI-H23 lung) was 118 nM and 151 nM and the GI50 (HCT-15 colon) was 35 nM. For the same compound, the TGI (HCT-15 colon) was 155 nM and 64.1 nM and the GI50 (NCI-H522 lung) was 290 nM.
